# Source: US10597388B2, “Pyridazinone herbicides” (FMC CORPORATION, priority 2014, dated 2020)
# Tests used:
# Test in all cases: Test D controlled growth environment herbicide test, pre- and postemergence
# Assay type in all cases: in vivo
# [1] = tested on: Russian thistle (Salsola kali)
# Outline: (§1)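 Species sown in silt loam and sprayed preemergence, or grown in peat-based medium to 2–18 cm (1- to 4-leaf stage) and sprayed postemergence, with compounds in non-phytotoxic solvent plus surfactant. Visual injury scored versus controls after 14–21 d in a controlled environment, 0 (no effect) to 100 (complete control).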
# [2] = tested on: blackgrass (Alopecurus myosuroides)
# Outline: as §1
# [3] = tested on: chickweed (common chickweed, Stellaria media)
# Outline: as §1
# [4] = tested on: deadnettle (henbit deadnettle, Lamium amplexicaule)
# Outline: as §1
# [5] = tested on: field poppy (Papaver rhoeas)
# Outline: as §1
# [6] = tested on: field violet (Viola arvensis)
# Outline: as §1
# [7] = tested on: oilseed rape (Brassica napus)
# Outline: as §1
# [8] = tested on: pigweed (Amaranthus retroflexus)
# Outline: as §1
# [9] = tested on: radish, wild (wild radish, Raphanus raphanistrum)
# Outline: as §1
# [10] = tested on: ryegrass, Italian (Italian ryegrass, Lolium multiflorum)
# Outline: as §1
# [11] = tested on: wheat, spring (spring wheat, Triticum aestivum)
# Outline: as §1
# [12] = tested on: wheat, winter (winter wheat, Triticum aestivum)
# Outline: as §1
# [13] = tested on: windgrass (Apera spica-venti)
# Outline: as §1
# [14] = Postemergence, 31 g ai/ha, scale 0 to 100 (0 no effect, 100 complete control)
# [15] = Postemergence, 125 g ai/ha, visual rating on scale 0 (no effect) to 100 (complete control), 14 to 21 d
# [16] = Postemergence, 250 g ai/ha, scale 0 to 100 (0 no effect, 100 complete control)
# [17] = Preemergence, 62 g ai/ha, scale 0 to 100 (0 no effect, 100 complete control)
# [18] = Preemergence, 125 g ai/ha, scale 0 to 100 (0 no effect, 100 complete control)
# [19] = Preemergence, 250 g ai/ha, scale 0 to 100 (0 no effect, 100 complete control)
# [20] = postemergence, 62 g ai/ha, scale 0 to 100, 0 no effect, 100 complete control
structure (smiles),measurement,setting,value
Cc1ccc(-c2c(O)c(Br)nn(C)c2=O)c2ccccc12 [Compound 52],Russian Thistle plant response rating,[1]; [14],20
same,"Plant response rating, Russian Thistle",[1]; [15],45
same,"Plant response rating, Russian Thistle",[1]; [16],55
same,"Plant response rating (scale of 0 to 100), Russian Thistle","[1]; Preemergence, 31 g ai/ha",0
same,"Plant response rating, Russian Thistle",[1]; [17],0
same,"Plant response rating, Russian Thistle",[1]; [18],0
same,"Plant response rating, Russian Thistle",[1]; [19],0
same,"Plant response rating, Russian Thistle",[1]; [20],35
same,Blackgrass plant response rating,[2]; [14],10
same,"Plant response rating, Blackgrass",[2]; [15],15
same,"Plant response rating, Blackgrass",[2]; [16],40
same,"Plant response rating (scale of 0 to 100), Blackgrass","[2]; Preemergence, 31 g ai/ha",20
same,"Plant response rating, Blackgrass",[2]; [17],20
same,"Plant response rating, Blackgrass",[2]; [18],65
same,"Plant response rating, Blackgrass",[2]; [19],65
same,"Plant response rating, Blackgrass",[2]; [20],15
same,Chickweed plant response rating,[3]; [14],90
same,"Plant response rating, Chickweed",[3]; [15],90
same,"Plant response rating, Chickweed",[3]; [16],100
same,"Plant response rating (scale of 0 to 100), Chickweed","[3]; Preemergence, 31 g ai/ha",98
same,"Plant response rating, Chickweed",[3]; [17],98
same,"Plant response rating, Chickweed",[3]; [18],100
same,"Plant response rating, Chickweed",[3]; [19],100
same,"Plant response rating, Chickweed",[3]; [20],100
same,Deadnettle plant response rating,[4]; [14],35
same,"Plant response rating, Deadnettle",[4]; [15],35
same,"Plant response rating, Deadnettle",[4]; [16],35
same,"Plant response rating (scale of 0 to 100), Deadnettle","[4]; Preemergence, 31 g ai/ha",0
same,"Plant response rating, Deadnettle",[4]; [17],0
same,"Plant response rating, Deadnettle",[4]; [18],10
same,"Plant response rating, Deadnettle",[4]; [19],25
same,"Plant response rating, Deadnettle",[4]; [20],25
same,Field Poppy plant response rating,[5]; [14],85
same,"Plant response rating, Field Poppy",[5]; [15],90
same,"Plant response rating, Field Poppy",[5]; [16],100
same,"Plant response rating (scale of 0 to 100), Field Poppy","[5]; Preemergence, 31 g ai/ha",0
same,"Plant response rating, Field Poppy",[5]; [17],0
same,"Plant response rating, Field Poppy",[5]; [18],100
same,"Plant response rating, Field Poppy",[5]; [19],100
same,"Plant response rating, Field Poppy",[5]; [20],80
same,Field Violet plant response rating,[6]; [14],35
same,"Plant response rating, Field Violet",[6]; [15],75
same,"Plant response rating, Field Violet",[6]; [16],75
same,"Plant response rating (scale of 0 to 100), Field Violet","[6]; Preemergence, 31 g ai/ha",0
same,"Plant response rating, Field Violet",[6]; [17],10
same,"Plant response rating, Field Violet",[6]; [18],75
same,"Plant response rating, Field Violet",[6]; [19],85
same,"Plant response rating, Field Violet",[6]; [20],65
same,Oilseed Rape plant response rating,[7]; [14],0
same,"Plant response rating, Oilseed Rape",[7]; [15],65
same,"Plant response rating, Oilseed Rape",[7]; [16],80
same,"Plant response rating (scale of 0 to 100), Oilseed Rape","[7]; Preemergence, 31 g ai/ha",0
same,"Plant response rating, Oilseed Rape",[7]; [17],0
same,"Plant response rating, Oilseed Rape",[7]; [18],0
same,"Plant response rating, Oilseed Rape",[7]; [19],55
same,"Plant response rating, Oilseed Rape",[7]; [20],5
same,Pigweed plant response rating,[8]; [14],35
same,"Plant response rating, Pigweed",[8]; [15],75
same,"Plant response rating, Pigweed",[8]; [16],80
same,"Plant response rating (scale of 0 to 100), Pigweed","[8]; Preemergence, 31 g ai/ha",60
same,"Plant response rating, Pigweed",[8]; [17],55
same,"Plant response rating, Pigweed",[8]; [18],65
same,"Plant response rating, Pigweed",[8]; [19],90
same,"Plant response rating, Pigweed",[8]; [20],40
same,"Radish, Wild plant response rating",[9]; [14],35
same,"Plant response rating, Radish, Wild",[9]; [15],80
same,"Plant response rating, Radish, Wild",[9]; [16],85
same,"Plant response rating (scale of 0 to 100), Radish, Wild","[9]; Preemergence, 31 g ai/ha",0
same,"Plant response rating, Radish, Wild",[9]; [17],15
same,"Plant response rating, Radish, Wild",[9]; [18],55
same,"Plant response rating, Radish, Wild",[9]; [19],75
same,"Plant response rating, Radish, Wild",[9]; [20],65
same,"Ryegrass, Italian plant response rating",[10]; [14],40
same,"Plant response rating, Ryegrass, Italian",[10]; [15],75
same,"Plant response rating, Ryegrass, Italian",[10]; [16],80
same,"Plant response rating (scale of 0 to 100), Ryegrass, Italian","[10]; Preemergence, 31 g ai/ha",85
same,"Plant response rating, Ryegrass, Italian",[10]; [17],85
same,"Plant response rating, Ryegrass, Italian",[10]; [18],100
same,"Plant response rating, Ryegrass, Italian",[10]; [19],98
same,"Plant response rating, Ryegrass, Italian",[10]; [20],50
same,"Wheat, Spring plant response rating",[11]; [14],0
same,"Plant response rating, Wheat, Spring",[11]; [15],0
same,"Plant response rating, Wheat, Spring",[11]; [16],5
same,"Plant response rating (scale of 0 to 100), Wheat, Spring","[11]; Preemergence, 31 g ai/ha",0
same,"Plant response rating, Wheat, Spring",[11]; [17],0
same,"Plant response rating, Wheat, Spring",[11]; [18],0
same,"Plant response rating, Wheat, Spring",[11]; [19],5
same,"Plant response rating, Wheat, Spring",[11]; [20],0
same,"Wheat, Winter plant response rating",[12]; [14],0
same,"Plant response rating, Wheat, Winter",[12]; [15],15
same,"Plant response rating, Wheat, Winter",[12]; [16],15
same,"Plant response rating (scale of 0 to 100), Wheat, Winter","[12]; Preemergence, 31 g ai/ha",0
same,"Plant response rating, Wheat, Winter",[12]; [17],0
same,"Plant response rating, Wheat, Winter",[12]; [18],0
same,"Plant response rating, Wheat, Winter",[12]; [19],0
same,"Plant response rating, Wheat, Winter",[12]; [20],10
same,Windgrass plant response rating,[13]; [14],0
same,"Plant response rating, Windgrass",[13]; [15],5
same,"Plant response rating, Windgrass",[13]; [16],5
same,"Plant response rating (scale of 0 to 100), Windgrass","[13]; Preemergence, 31 g ai/ha",10
same,"Plant response rating, Windgrass",[13]; [17],10
same,"Plant response rating, Windgrass",[13]; [18],10
same,"Plant response rating, Windgrass",[13]; [19],10
same,"Plant response rating, Windgrass",[13]; [20],5
